# Measured values as given in US20160367623A1, “AGONISTS OF GUANYLATE CYCLASE USEFUL FOR THE TREATMENT OF GASTROINTESTINAL DISORDERS, INFLAMMATION, CANCER AND OTHER DISORDERS” (priority 2015, published 2016).
# Bridge positions count the residues as written; N and C are the ends. Ends that are not written are not given here.
# System: patients with chronic idiopathic constipation (CIC)
# Experiment: Second phase 3 CIC trial: change from baseline in CSBMs/week
# Format: in vivo, human
# Settings: All Randomized (includes Duplicate Patients)
# [1] = 3 mg, overall average estimate across the 12-week treatment period
substance,measurement,setting,value
"Asn^1-Asp^2-Glu^3-Cys^4-Glu^5-Leu^6-Cys^7-Val^8-Asn^9-Val^10-Ala^11-Cys^12-Thr^13-Gly^14-Cys^15-Leu^16 (NDECELCVNVACTGCL; disulfide 4-12, 7-15) [Plecanatide, uroguanylin analogue, guanylate cyclase-C agonist; (C4:C12, C7:C15) bicycle peptide]","Change from Baseline in CSBMs, Difference from Placebo","3 mg, Post-Treatment Week 13",0.43 CSBMs/week
same,"Change from Baseline in CSBMs, LS Mean (SE)","3 mg, Post-Treatment Week 13",1.91 (0.131) CSBMs/week
same,"Change from Baseline in CSBMs, Mean (SD)","3 mg, Post-Treatment Week 13",1.87 (2.717) CSBMs/week
same,"Change from Baseline in CSBMs, Difference from Placebo","3 mg, Post-Treatment Week 14",0.40 CSBMs/week
same,"Change from Baseline in CSBMs, LS Mean (SE)","3 mg, Post-Treatment Week 14",1.78 (0.133) CSBMs/week
same,"Change from Baseline in CSBMs, Mean (SD)","3 mg, Post-Treatment Week 14",1.75 (2.596) CSBMs/week
same,"Change from Baseline in CSBMs, Difference from Placebo","3 mg, Week 1",0.90 CSBMs/week
same,"Change from Baseline in CSBMs, LS Mean (SE)","3 mg, Week 1",1.72 (0.147) CSBMs/week
same,"Change from Baseline in CSBMs, Mean (SD)","3 mg, Week 1",1.75 (2.737) CSBMs/week
same,"Change from Baseline in CSBMs, Difference from Placebo","3 mg, Week 2",0.87 CSBMs/week
same,"Change from Baseline in CSBMs, LS Mean (SE)","3 mg, Week 2",1.83 (0.147) CSBMs/week
same,"Change from Baseline in CSBMs, Mean (SD)","3 mg, Week 2",1.82 (2.956) CSBMs/week
same,"Change from Baseline in CSBMs, Difference from Placebo","3 mg, Week 3",0.77 CSBMs/week
same,"Change from Baseline in CSBMs, LS Mean (SE)","3 mg, Week 3",1.94 (0.147) CSBMs/week
same,"Change from Baseline in CSBMs, Mean (SD)","3 mg, Week 3",1.94 (3.084) CSBMs/week
same,"Change from Baseline in CSBMs, Difference from Placebo","3 mg, Week 4",0.95 CSBMs/week
same,"Change from Baseline in CSBMs, LS Mean (SE)","3 mg, Week 4",2.17 (0.148) CSBMs/week
same,"Change from Baseline in CSBMs, Mean (SD)","3 mg, Week 4",2.20 (3.352) CSBMs/week
same,"Change from Baseline in CSBMs, Difference from Placebo","3 mg, Week 5",0.87 CSBMs/week
same,"Change from Baseline in CSBMs, LS Mean (SE)","3 mg, Week 5",2.30 (0.149) CSBMs/week
same,"Change from Baseline in CSBMs, Difference from Placebo","3 mg, Week 6",1.00 CSBMs/week
same,"Change from Baseline in CSBMs, LS Mean (SE)","3 mg, Week 6",2.30 (0.149) CSBMs/week
same,"Change from Baseline in CSBMs, Difference from Placebo","3 mg, Week 7",0.82 CSBMs/week
same,"Change from Baseline in CSBMs, LS Mean (SE)","3 mg, Week 7",2.28 (0.150) CSBMs/week
same,"Change from Baseline in CSBMs, Difference from Placebo","3 mg, Week 8",1.01 CSBMs/week
same,"Change from Baseline in CSBMs, LS Mean (SE)","3 mg, Week 8",2.49 (0.150) CSBMs/week
same,"Change from Baseline in CSBMs, Difference from Placebo","3 mg, Week 9",0.93 CSBMs/week
same,"Change from Baseline in CSBMs, LS Mean (SE)","3 mg, Week 9",2.46 (0.150) CSBMs/week
same,"Change from Baseline in CSBMs, Difference from Placebo","3 mg, Week 10",0.84 CSBMs/week
same,"Change from Baseline in CSBMs, LS Mean (SE)","3 mg, Week 10",2.46 (0.150) CSBMs/week
same,"Change from Baseline in CSBMs, Difference from Placebo","3 mg, Week 11",0.96 CSBMs/week
same,"Change from Baseline in CSBMs, LS Mean (SE)","3 mg, Week 11",2.53 (0.151) CSBMs/week
same,"Change from Baseline in CSBMs, Difference from Placebo","3 mg, Week 12",0.95 CSBMs/week
same,"Change from Baseline in CSBMs, LS Mean (SE)","3 mg, Week 12",2.58 (0.151) CSBMs/week
same,"Change from Baseline in CSBMs, Difference from Placebo",[1],0.91 CSBMs/week
same,"Change from Baseline in CSBMs, LS Mean (SE)",[1],2.25 (0.129) CSBMs/week
same,"Change from Baseline in CSBMs, Difference from Placebo","6 mg, Post-Treatment Week 13",0.16 CSBMs/week
same,"Change from Baseline in CSBMs, LS Mean (SE)","6 mg, Post-Treatment Week 13",1.64 (0.130) CSBMs/week
same,"Change from Baseline in CSBMs, Mean (SD)","6 mg, Post-Treatment Week 13",1.59 (2.376) CSBMs/week
same,"Change from Baseline in CSBMs, Difference from Placebo","6 mg, Post-Treatment Week 14",0.30 CSBMs/week
same,"Change from Baseline in CSBMs, LS Mean (SE)","6 mg, Post-Treatment Week 14",1.67 (0.133) CSBMs/week
same,"Change from Baseline in CSBMs, Mean (SD)","6 mg, Post-Treatment Week 14",1.62 (2.588) CSBMs/week
same,"Change from Baseline in CSBMs, Difference from Placebo","6 mg, Week 1",0.88 CSBMs/week
same,"Change from Baseline in CSBMs, LS Mean (SE)","6 mg, Week 1",1.70 (0.146) CSBMs/week
same,"Change from Baseline in CSBMs, Mean (SD)","6 mg, Week 1",1.71 (2.870) CSBMs/week
same,"Change from Baseline in CSBMs, Difference from Placebo","6 mg, Week 2",0.85 CSBMs/week
same,"Change from Baseline in CSBMs, LS Mean (SE)","6 mg, Week 2",1.81 (0.146) CSBMs/week
same,"Change from Baseline in CSBMs, Mean (SD)","6 mg, Week 2",1.83 (3.118) CSBMs/week
same,"Change from Baseline in CSBMs, Difference from Placebo","6 mg, Week 3",0.65 CSBMs/week
same,"Change from Baseline in CSBMs, LS Mean (SE)","6 mg, Week 3",1.81 (0.147) CSBMs/week
same,"Change from Baseline in CSBMs, Mean (SD)","6 mg, Week 3",1.83 (2.927) CSBMs/week
same,"Change from Baseline in CSBMs, Difference from Placebo","6 mg, Week 4",0.80 CSBMs/week
same,"Change from Baseline in CSBMs, LS Mean (SE)","6 mg, Week 4",2.02 (0.147) CSBMs/week
same,"Change from Baseline in CSBMs, Difference from Placebo","6 mg, Week 5",0.50 CSBMs/week
same,"Change from Baseline in CSBMs, LS Mean (SE)","6 mg, Week 5",1.93 (0.147) CSBMs/week
same,"Change from Baseline in CSBMs, Difference from Placebo","6 mg, Week 6",0.91 CSBMs/week
same,"Change from Baseline in CSBMs, LS Mean (SE)","6 mg, Week 6",2.21 (0.148) CSBMs/week
same,"Change from Baseline in CSBMs, Difference from Placebo","6 mg, Week 7",0.81 CSBMs/week
same,"Change from Baseline in CSBMs, LS Mean (SE)","6 mg, Week 7",2.27 (0.148) CSBMs/week
same,"Change from Baseline in CSBMs, Difference from Placebo","6 mg, Week 8",0.81 CSBMs/week
same,"Change from Baseline in CSBMs, LS Mean (SE)","6 mg, Week 8",2.29 (0.148) CSBMs/week
same,"Change from Baseline in CSBMs, Difference from Placebo","6 mg, Week 9",0.81 CSBMs/week
same,"Change from Baseline in CSBMs, LS Mean (SE)","6 mg, Week 9",2.34 (0.149) CSBMs/week
same,"Change from Baseline in CSBMs, Difference from Placebo","6 mg, Week 10",0.85 CSBMs/week
same,"Change from Baseline in CSBMs, LS Mean (SE)","6 mg, Week 10",2.47 (0.149) CSBMs/week
same,"Change from Baseline in CSBMs, Difference from Placebo","6 mg, Week 11",0.83 CSBMs/week
same,"Change from Baseline in CSBMs, LS Mean (SE)","6 mg, Week 11",2.40 (0.149) CSBMs/week
same,"Change from Baseline in CSBMs, Difference from Placebo","6 mg, Week 12",0.86 CSBMs/week
same,"Change from Baseline in CSBMs, LS Mean (SE)","6 mg, Week 12",2.49 (0.150) CSBMs/week
same,"Change from Baseline in CSBMs, Difference from Placebo","6 mg, overall average estimate across the 12-week treatment period",0.80 CSBMs/week
